From ChEMBL document CHEMBL2413073, “Efficient construction of novel D-ring modified steroidal dienamides and their cytotoxic activities” (Eur J Med Chem, 2013)
≈ marks a conversion by molar mass, not a printed value.

Tests used:
[1] = Cytotoxicity against human MEL28 cells; format: functional, cell-based; conditions: SK-MEL-28
A549 = test: Cytotoxicity against human A549 cells; format: functional, cell-based
HT-29 = test: Cytotoxicity against human HT-29 cells; format: functional, cell-based
P388 = test: Cytotoxicity against mouse P388 cells; format: functional, cell-based
MGC-803 [2] = test: Cell cycle arrest in human MGC803 cells assessed as accumulation at G2/M phase at 8 uM after 24 hrs by propidium iodide staining-based flow cytometry (reference value: 20.41%); format: functional
MGC-803 [3] = test: Cell cycle arrest in human MGC803 cells assessed as accumulation at G2/M phase at 4 uM after 24 hrs by propidium iodide staining-based flow cytometry (reference value: 20.41%); format: functional
MGC-803 [4] = test: Cell cycle arrest in human MGC803 cells assessed as accumulation at G2/M phase at 2 uM after 24 hrs by propidium iodide staining-based flow cytometry (reference value: 20.41%); format: functional
MGC-803 [5] = test: Cell cycle arrest in human MGC803 cells assessed as accumulation at S phase at 8 uM after 24 hrs by propidium iodide staining-based flow cytometry (reference value: 26.67%); format: functional
MGC-803 [6] = test: Cell cycle arrest in human MGC803 cells assessed as accumulation at S phase at 4 uM after 24 hrs by propidium iodide staining-based flow cytometry (reference value: 26.67%); format: functional
MGC-803 [7] = test: Cell cycle arrest in human MGC803 cells assessed as accumulation at S phase at 2 uM after 24 hrs by propidium iodide staining-based flow cytometry (reference value: 26.67%); format: functional
MGC-803 [8] = test: Cell cycle arrest in human MGC803 cells assessed as accumulation at G0/G1 phase at 8 uM after 24 hrs by propidium iodide staining-based flow cytometry (reference value: 43.45%); format: functional
MGC-803 [9] = test: Cell cycle arrest in human MGC803 cells assessed as accumulation at G0/G1 phase at 4 uM after 24 hrs by propidium iodide staining-based flow cytometry (reference value: 43.45%); format: functional
MGC-803 [10] = test: Cell cycle arrest in human MGC803 cells assessed as accumulation at G0/G1 phase at 2 uM after 24 hrs by propidium iodide staining-based flow cytometry (reference value: 43.45%); format: functional
MGC-803 [11] = test: Cell cycle arrest in human MGC803 cells assessed as accumulation at G2/M phase after 24 hrs by propidium iodide staining-based flow cytometry; format: functional
MGC-803 [12] = test: Induction of apoptosis in human MGC803 cells assessed as necrotic cells at 8 uM after 24 hrs by AnnexinV/FITC-propidium iodide staining-based flow cytometry (reference value: 0.2%); format: functional
MGC-803 [13] = test: Induction of apoptosis in human MGC803 cells assessed as necrotic cells at 4 uM after 24 hrs by AnnexinV/FITC-propidium iodide staining-based flow cytometry (reference value: 0.2%); format: functional
MGC-803 [14] = test: Induction of apoptosis in human MGC803 cells assessed as necrotic cells at 2 uM after 24 hrs by AnnexinV/FITC-propidium iodide staining-based flow cytometry (reference value: 0.2%); format: functional
MGC-803 [15] = test: Induction of apoptosis in human MGC803 cells assessed as late apoptotic cells at 8 uM after 24 hrs by AnnexinV/FITC-propidium iodide staining-based flow cytometry (reference value: 1.2%); format: functional
MGC-803 [16] = test: Induction of apoptosis in human MGC803 cells assessed as late apoptotic cells at 4 uM after 24 hrs by AnnexinV/FITC-propidium iodide staining-based flow cytometry (reference value: 1.2%); format: functional
MGC-803 [17] = test: Induction of apoptosis in human MGC803 cells assessed as late apoptotic cells at 2 uM after 24 hrs by AnnexinV/FITC-propidium iodide staining-based flow cytometry (reference value: 1.2%); format: functional
MGC-803 [18] = test: Induction of apoptosis in human MGC803 cells assessed as early apoptotic cells at 8 uM after 24 hrs by AnnexinV/FITC-propidium iodide staining-based flow cytometry (reference value: 8.9%); format: functional
MGC-803 [19] = test: Induction of apoptosis in human MGC803 cells assessed as early apoptotic cells at 4 uM after 24 hrs by AnnexinV/FITC-propidium iodide staining-based flow cytometry (reference value: 8.9%); format: functional
MGC-803 [20] = test: Induction of apoptosis in human MGC803 cells assessed as early apoptotic cells at 2 uM after 24 hrs by AnnexinV/FITC-propidium iodide staining-based flow cytometry (reference value: 8.9%); format: functional
MGC-803 [21] = test: Induction of apoptosis in human MGC803 cells assessed as viable cells at 8 uM after 24 hrs by AnnexinV/FITC-propidium iodide staining-based flow cytometry (reference value: 89.6%); format: functional; conditions: MGC-803, 24 h, read-out: Activity
MGC-803 [22] = test: Induction of apoptosis in human MGC803 cells assessed as viable cells at 4 uM after 24 hrs by AnnexinV/FITC-propidium iodide staining-based flow cytometry (reference value: 89.6%); format: functional; conditions: MGC-803, 24 h, read-out: Activity
MGC-803 [23] = test: Induction of apoptosis in human MGC803 cells assessed as viable cells at 2 uM after 24 hrs by AnnexinV/FITC-propidium iodide staining-based flow cytometry (reference value: 89.6%); format: functional; conditions: MGC-803, 24 h, read-out: Activity
SMMC-7721 = test: Cytotoxicity against human SMMC7721 cells after 72 hrs by MTT assay; format: functional, cell-based; conditions: SMMC-7721, 72 h
PC-3 = test: Cytotoxicity against human PC3 cells after 72 hrs by MTT assay; format: functional, cell-based; conditions: PC-3, 72 h
MGC-803 [24] = test: Cytotoxicity against human MGC803 cells after 72 hrs by MTT assay; format: functional, cell-based; conditions: MGC-803, 72 h
[25] = Cytotoxicity against human EC109 cells after 72 hrs by MTT assay; format: functional, cell-based; conditions: ECa-109, 72 h
MCF7 = test: cells; conditions: Homo sapiens, MCF7, 72 h
Description: Cytotoxicity against human MCF7 cells after 72 hrs by MTT assay

`C=C1C[C@@H]2C/C=C/C(=O)C/C(C)=C\C=C\C(=O)O[C@H]([C@H](O)NC(=O)/C=C\C=C\C)C/C(C)=C/[C@H](C1)O2` [ZAMPANOLIDE] showed an IC50 [1] of 1 ng/mL (≈ 2.02 nM), an IC50 (A549) of 1 ng/mL (≈ 2.02 nM) and an IC50 (HT-29) of 1 ng/mL (≈ 2.02 nM). The IC50 (P388) was 1 ng/mL (≈ 2.02 nM).
In the case of `CC(=O)O[C@H]1CC[C@@]2(C)C(=CC[C@@H]3[C@@H]2CC[C@]2(C)C(=C(/C#N)C(N)=O)/C(=C/c4ccc(Cl)cc4)C[C@@H]32)C1`, the Activity (MGC-803 [2]) is reported as 56.91%, the Activity (MGC-803 [3]) is reported as 49.43% and the Activity (MGC-803 [4]) is reported as 33.68%. The Activity (MGC-803 [5]) was 19.09%, the Activity (MGC-803 [6]) was 19.94% and the Activity (MGC-803 [7]) was 15.68%. For the same compound, the Activity (MGC-803 [8]) was 21.6%, the Activity (MGC-803 [9]) was 28.84% and the Activity (MGC-803 [10]) was 48.61%. The Activity (MGC-803 [11]) was “Dose-dependent effect”, the Activity (MGC-803 [12]) was 0.1% and the Activity (MGC-803 [13]) was 2%. The Activity (MGC-803 [14]) was 0.5%, the Activity (MGC-803 [15]) was 17.1% and the Activity (MGC-803 [16]) was 9.4%. For the same compound, the Activity (MGC-803 [17]) was 4.4%, the Activity (MGC-803 [18]) was 80.9% and the Activity (MGC-803 [19]) was 35.9%. The Activity (MGC-803 [20]) was 18.7%, the viability at 8 µM (MGC-803 [21]) was 1.9% and the viability at 4 µM (MGC-803 [22]) was 52.7%. It also gave a viability at 2 µM (MGC-803 [23]) of 76.3%, an IC50 (SMMC-7721) of 3.9 µM and an IC50 (PC-3) of 11.5 µM. For the same compound, the IC50 (MGC-803 [24]) was 1.54 µM, the IC50 [25] was 5.56 µM and the IC50 (MCF7) was 3.85 µM.
